Publication PMC6199744, “Development of Chemical Proteomics for the Folateome and Analysis of the Kinetoplastid Folateome” (ACS Infectious Diseases, 2018)
Where “and” joins values, the source holds several entries; their conditions need not be identical. Identical values can stand only once. Like-named read-outs stand apart in the source and are kept apart here.

Tested on: L. major lysate proteins
Test: Multitargeted bead mixture chemoproteomics, single concentration competition, proteome-wide
Assay type: binding
Conditions: for fold change / fold change relative to vehicle control: vehicle control = 1; for fold change relative to vehicle control: competition with free ligand

Structure (SMILES): CCCCCCOc1cccc(Cc2cnc(N)nc2N)c1 [compound 2]
- fold change vs vehicle control: 1.17 and 1.18 and 1.07 and 1.04
- fold change (LINJ.05.0500 ATPASE ALPHA SUBUNIT): 1.11
- fold change (LINJ.36.4570 PROTEASOME REGULATORY ATPASE SUBUNIT): 0.65
- fold change (LMJF.10.0510 GLYCEROL-3-PHOSPHATE DEH[…] ], GLYCOSOMAL): 1.02
- fold change (LMJF.16.1610 PROHIBITIN): 1.14
- fold change (LMJF.18.1370 HEAT SHOCK PROTEIN, PUTATIVE): 1.03
- fold change (LMJF.19.0300 RNA BINDING PROTEIN, PUTATIVE): 0.93
- fold change (LMJF.21.0760 […]-ATP-ASE SUBUNIT 5, PUTATIVE): 0.91
- fold change (LMJF.22.0410 HY[…], CONSERVED): 0.85
- fold change (LMJF.25.1770 ENOYL-COA REDUCTASE, PUTATIVE): 1.1
- fold change (LMJF.26.0300 AMINOPEPTIDASE-LIKE PROTEIN): 0.85
- fold change (LMJF.26.2560 HY[…], CONSERVED): 1.08
- fold change (LMJF.27.1810 GLYCOSOMAL PHOSPHOENOLPYRUVATE CARBOXYKINASE, PUTATIVE): 1.17
- fold change (LMJF.28.0490 PROPIONYL-COA CARBOXYLASE BETA CHAIN, PUTATIVE): 0.63
- fold change (LMJF.29.0940 HY[…], CONSERVED): 1.21
- fold change (LMJF.29.1310 CARNITINE/CHOLINE ACETYLTRANSFERASE, PUTATIVE): 1.04
- fold change (LMJF.29.1470 HY[…], CONSERVED): 1.11
- fold change (LMJF.29.2440 HYPOTHETICAL PROTEIN, CONSERVED): 1
- fold change (LMJF.30.2350 SPHINGOSINE 1-PHOSPHATE LYASE): 1.12
- fold change (LMJF.30.2970 GLYCERALDEHYDE 3-PHOSPHATE DEHYDROGENASE, GLYCOSOMAL): 1.11
- fold change (LMJF.30.3390 CAS/CSE/IMPORTIN DOMAIN PROTEIN, PUTATIVE): 0.9
- fold change (LMJF.31.2650 ACETOIN DEHYDROGENASE E3 COMPONENT-LIKE PROTEIN): 1.02
- fold change (LMJF.31.2970 ACETYL-COA CARBOXYLASE, PUTATIVE): 0.91
- fold change (LMJF.33.1030 HYPOTHETICAL PROTEIN, CONSERVED): 0.95
- fold change (LMJF.35.5040 polyadenylate-binding protein 1): 1.22
- fold change (LMJF.35.5250 ALPHA-1,2-MANNOSYLTRANSFERASE, PUTATIVE): 0.99
- fold change (LMJF.36.5100 HY[…], CONSERVED): 1.03
- fold change (LMJF.[…] RIBOSOMAL PROTEIN S7, PUTATIVE): 1.35
- fold change vs vehicle control (protein LINJ.03.0940 HY[…], CONSERVED): 1.19
- fold change vs vehicle control (protein LINJ.09.0030 HYPOTHETICAL PROTEIN, CONSERVED): 0.91
- fold change relative to vehicle control (protein LINJ.11.0780 40S RIBOSOMAL PROTEIN S21, PUTATIVE): 1.25
- fold change (protein LINJ.13.0990 […] SUBUNIT 2, PUTATIVE): 1.04
- fold change vs vehicle control (protein LINJ.13.1460 ALPHA TUBULIN): 1.06
- fold change (protein LINJ.15.0090 HEAT SHOCK PROTEIN HSLVU, ATPASE SUBUNIT HSLU, PUTATIVE): 1.01
- fold change relative to vehicle control (protein LINJ.16.1380 CYTOCHROME C, PUTATIVE): 1.41
- fold change vs vehicle control (protein LINJ.19.0300 RNA BINDING PROTEIN): 1.2
- fold change (protein LINJ.20.0630 CYTIDINE TR[…], PUTATIVE): 1.24
- fold change relative to vehicle control (protein LINJ.20.1390 COATOMER BETA SUBUNIT, PUTATIVE): 1.31
- fold change vs vehicle control (protein LINJ.21.1310 40S RIBOSOMAL PROTEIN S23, PUTATIVE): 1.12
- fold change vs vehicle control (protein LINJ.23.1680 HY[…], CONSERVED): 1.11
- fold change vs vehicle control (protein LINJ.25.1170 […] OXIDASE VII, PUTATIVE): 1.03
- fold change relative to vehicle control (protein LINJ.25.1220 RIBOSOMAL PROTEIN S25): 1.24
- fold change vs vehicle control (protein LINJ.26.1080 HY[…], CONSERVED): 1.11
- fold change vs vehicle control (protein LINJ.27.1140 HY[…], CONSERVED): 1.05
- fold change vs vehicle control (protein LINJ.28.1100 RIBOSOMAL PROTEIN S20, PUTATIVE): 1.04
- fold change relative to vehicle control (protein LINJ.28.1940 REPLICATION FACTOR A, 51KDA SUBUNIT, PUTATIVE): 1.28
- fold change (protein LINJ.31.2350 ADP-RI[…], PUTATIVE): 1.11
- fold change vs vehicle control (protein LINJ.34.0670 […]-ATP-ASE SUBUNIT 11, PUTATIVE): 1.17
- fold change (protein LINJ.35.0410 40S RIBOSOMAL PROTEIN S3A, PUTATIVE): 1.2
- fold change relative to vehicle control (protein LINJ.35.0780 CBS DOMAIN PROTEIN, CONSERVED): 0.96
- fold change vs vehicle control (protein LINJ.36.0510 HY[…], CONSERVED): 1.08
- fold change vs vehicle control (protein LINJ.36.3940 40S RIBOSOMAL PROTEIN S27-1, PUTATIVE): 0.95
- fold change (protein LINJ.36.4180 HS1VU COMPLEX PROTEOLYTIC SUBUNIT-LIKE): 0.97
- fold change (protein LINJ.36.7350 […] OXIDASE SUBUNIT I): 1.03
- fold change (protein LMJF.01.0520 LONG-CHAIN-FATTY-ACID-COA LIGASE, PUTATIVE): 0.98
- fold change vs vehicle control (protein LMJF.02.0460 HY[…], CONSERVED): 1.06
- fold change vs vehicle control (protein LMJF.03.0230 LONG CHAIN FATTY ACYL COA SYNTHETASE, PUTATIVE): 1.18
- fold change vs vehicle control (protein LMJF.03.0630 HYPOTHETICAL PROTEIN, CONSERVED): 1
- fold change (protein LMJF.05.0780 HY[…], CONSERVED): 1.13
- fold change (protein LMJF.06.0010 HISTONE H4): 1.16
- fold change (protein LMJF.06.0140 PROTEASOME BETA 6 SUBUNIT, PUTATIVE): 0.93
- fold change (protein LMJF.06.0650 […], PUTATIVE): 1.08
- fold change vs vehicle control (protein LMJF.08.0510 RIBOSE-PHOSPHATE PYROPHOSPHOKINASE, PUTATIVE): 1.01
- fold change vs vehicle control (protein LMJF.08.0550 TRANSLATION INITIATION FACTOR-LIKE PROTEIN): 1.1
- fold change vs vehicle control (protein LMJF.08.1100 HY[…], CONSERVED): 1.08
- fold change relative to vehicle control (protein LMJF.09.1120 MITOCHONDRIAL RNA BINDING PROTEIN 2,MRP2, GBP25): 1
- fold change vs vehicle control (protein LMJF.09.1260 HY[…], CONSERVED): 1.11
- fold change (protein LMJF.10.1010 NUCLEOSIDE PHOSPHORYLASE-LIKE PROTEIN): 0.94
- fold change (protein LMJF.10.1240 HYPOTHETICAL PROTEIN, CONSERVED): 0.79
- fold change vs vehicle control (protein LMJF.11.0130 NGG1 I[…] 3-LIKE PROTEIN): 1.06
- fold change vs vehicle control (protein LMJF.11.0240 […] 7 SUBUNIT, PUTATIVE): 1.02
- fold change (protein LMJF.11.1050 PRETRA[…], ALPHA SUBUNIT, PUTATIVE): 1.27
- fold change vs vehicle control (protein LMJF.11.1110 60S RIBOSOMAL PROTEIN L28, PUTATIVE): 1.71
- fold change vs vehicle control (protein LMJF.12.0210 […] […]1L8 3, PUTATIVE): 0.96
- fold change vs vehicle control (protein LMJF.12.0280 ORNITHINE DECARBOXYLASE, PUTATIVE): 0.92
- fold change vs vehicle control (protein LMJF.13.0450 HYPOTHETICAL PROTEIN, CONSERVED): 0.94
- fold change vs vehicle control (protein LMJF.13.0870 MIT[…] ALPHA SUBUNIT, PUTATIVE): 1.12
- fold change vs vehicle control (protein LMJF.14.0130 INOSINE-GUANINE NUCLEOSIDE HYDROLASE, PUTATIVE): 1
- fold change (protein LMJF.14.0310 PROTEASOME ALPHA 3 SUBUNIT, PUTATIVE): 0.96
- fold change (protein LMJF.14.0650 FATTY ACID ELONGASE, PUTATIVE): 1.09
- fold change (protein LMJF.14.0660 FATTY ACID ELONGASE, PUTATIVE): 1.14
- fold change (protein LMJF.14.0705 FATTY ACID ELONGASE, PUTATIVE): 0.94
- fold change (protein LMJF.14.0740 FATTY ACID ELONGASE, PUTATIVE): 1.13
- fold change relative to vehicle control (protein LMJF.14.1120 KINESIN K39, PUTATIVE): 1.12
- fold change vs vehicle control (protein LMJF.15.0230 LYSYL-TRNA SYNTHETASE, PUTATIVE): 1.06
- fold change vs vehicle control (protein LMJF.15.0280 RIBONUCLEOPROTEIN P18, MIT[…], PUTATIVE): 1.12
- fold change (protein LMJF.15.1010 GLUTAMATE DEHYDROGENASE): 1.12
- fold change relative to vehicle control (protein LMJF.16.0520 HYPOTHETICAL PROTEIN, CONSERVED): 2.05
- fold change (protein LMJF.16.0540 ASPARTATE […], PUTATIVE): 1.05
- fold change vs vehicle control (protein LMJF.16.0950 SUCROSE-PHOSPHATE SYNTHASE-LIKE PROTEIN): 1.27
- fold change vs vehicle control (protein LMJF.16.0960 HYPOTHETICAL PROTEIN, CONSERVED): 0.64
- fold change (protein LMJF.16.1180 COATOMER DELTA SUBUNIT-LIKE PROTEIN): 1.05
- fold change (protein LMJF.17.0010 HYPOTHETICAL PROTEIN, CONSERVED): 0.79
- fold change vs vehicle control (protein LMJF.18.0510 ACONITASE, PUTATIVE): 1.1
- fold change vs vehicle control (protein LMJF.18.0890 RAB7 GTP BINDING PROTEIN, PUTATIVE): 0.93
- fold change (protein LMJF.18.1130 RAS-RELATED PROTEIN RAB-5, PUTATIVE): 0.97
- fold change (protein LMJF.19.1120 […]-ATP-ASE SUBUNIT, PUTATIVE): 1.02
- fold change vs vehicle control (protein LMJF.19.1160 HY[…], CONSERVED): 1.14
- fold change vs vehicle control (protein LMJF.19.1530 PEPT[…]-LIKE PROTEIN): 1.05
- fold change (protein LMJF.20.0100 PHOSPH[…] C, GLYCOSOMAL): 1.08
- fold change vs vehicle control (protein LMJF.21.0720 HY[…], CONSERVED): 1.29
- fold change (protein LMJF.21.1250 ADENYLATE KINASE, PUTATIVE): 0.9
- fold change (protein LMJF.21.1555 HY[…], CONSERVED): 1.14
- fold change (protein LMJF.21.1580 HY[…], UNKNOWN FUNCTION): 1.22
- fold change vs vehicle control (protein LMJF.21.1700 […] 2 SUBUNIT, PUTATIVE): 1.01
- fold change (protein LMJF.22.0230 AMINO ACID PERMEASE, PUTATIVE): 1.51
- fold change (protein LMJF.22.0570 PROTEASOME REGULATORY ATPASE SUBUNIT 1, PUTATIVE): 1.1
